In the supplement of paper PMC11208160:

assay: recombinant UMI read abundance after kanamycin selection (control-corrected) (log10(CPM+1)); higher = more efficient recombination; extreme values may be limits of the assay; sequences stand for … in AGTGCAGAGAAAATCGGCCAGTTTTCTCTGCCTGCAGTCCGCATGCCGTGGGACCCCTTGGGTTCTAACCTGTTGCCTAGATTTATGCAGCGGACTGCCTTTCTCCCAAAGTGATAAACCGG…AGGTTGGTTTCACT; site = the 11-nt donor
Description: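 Pooled E. coli donor-specificity screen for the IS621 bridge recombinase. Each library member carries a reprogrammed 11-nt donor and a full-length LE bridge RNA expressed in cis from the natural promoter, with a paired donor-binding loop (8-nt LDG + 4-nt RDG) and a target-binding loop fixed to T5. It is co-electroporated with a T5 target plasmid; recombinase is induced with 0.07 mM IPTG and recombinants are selected on kanamycin. UMIs are counted as CPM, averaged over two biological replicates and corrected by the unselected control. Molecule = full bridge RNA written as DNA, built from the T5 scaffold: LDG = donor specificity nt 1-8, RDG = reverse complement of nt 8-11.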
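Note: IS621 bridge recombinase in Escherichia coli cells against a fixed T5 target plasmid.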

Row | Sequence | recombinant UMI read abundance (log10)
1 | AACTAAGCATGGACCGGTTTTCCCGGTAATCCGTATTTGGT (site AACTAAGCTAC) | 1.25
2 | AACTAGACATGGACCGGTTTTCCCGGTAATCCGTATTTGGG (site AACTAGACTCC) | 0.0148
3 | AACTAGACATGGACCGGTTTTCCCGGTAATCCGTATTTGGG (site ACCTAGACTCC) | 0.0296
4 | AACTAGACATGGACCGGTTTTCCCGGTAATCCGTATTTGGG (site AGCTAGACTCC) | 0.0187
5 | AACTAGACATGGACCGGTTTTCCCGGTAATCCGTATTTGGG (site ATCTAGACTCC) | 0.0377
6 | AACTAGACATGGACCGGTTTTCCCGGTAATCCGTATTTGGT (site AACTAGACTAC) | 0.776
7 | AACTATTCATGGACCGGTTTTCCCGGTAATCCGTATTTGTC (site AACTATTCTGA) | 0.671
8 | AACTCTACATGGACCGGTTTTCCCGGTAATCCGTATTTGAT (site AACTCTACTAT) | 0.82
9 | AACTGTCCATGGACCGGTTTTCCCGGTAATCCGTATTTGAT (site AACAGTCCTAT) | 0.00914
10 | AACTGTCCATGGACCGGTTTTCCCGGTAATCCGTATTTGAT (site AACCGTCCTAT) | 0.423
11 | AACTGTCCATGGACCGGTTTTCCCGGTAATCCGTATTTGAT (site AACGGTCCTAT) | 0.0127
12 | AACTGTCCATGGACCGGTTTTCCCGGTAATCCGTATTTGAT (site AACTGTCCTAT) | 0.173
13 | AAGAACACATGGACCGGTTTTCCCGGTAATCCGTATTTGAT (site AAGAACACTAT) | 2.22
14 | AAGAAGACATGGACCGGTTTTCCCGGTAATCCGTATTTGCA (site AAGAAGACTTG) | 2.73
15 | AAGAAGACATGGACCGGTTTTCCCGGTAATCCGTATTTGCA (site ACGAAGACTTG) | 1.66
16 | AAGAAGACATGGACCGGTTTTCCCGGTAATCCGTATTTGCA (site AGGAAGACTTG) | 2.2
17 | AAGAAGACATGGACCGGTTTTCCCGGTAATCCGTATTTGCA (site ATGAAGACTTG) | 1.95
18 | AAGAATACATGGACCGGTTTTCCCGGTAATCCGTATTTGCA (site AAGAATACTTG) | 1.67
19 | AAGAATACATGGACCGGTTTTCCCGGTAATCCGTATTTGCA (site CAGAATACTTG) | 1.37

Row | Sequence | recombinant UMI read abundance (log10)
20 | AAGAATACATGGACCGGTTTTCCCGGTAATCCGTATTTGCA (site GAGAATACTTG) | 0
21 | AAGAATACATGGACCGGTTTTCCCGGTAATCCGTATTTGCA (site TAGAATACTTG) | 1.7
22 | AAGACGCCATGGACCGGTTTTCCCGGTAATCCGTATTTGAT (site AAGACGCCTAT) | 0.386
23 | AAGACTACATGGACCGGTTTTCCCGGTAATCCGTATTTGAC (site AAGACTACTGT) | 2.69
24 | AAGACTACATGGACCGGTTTTCCCGGTAATCCGTATTTGAC (site ACGACTACTGT) | 0.383
25 | AAGACTACATGGACCGGTTTTCCCGGTAATCCGTATTTGAC (site AGGACTACTGT) | 1.33
26 | AAGACTACATGGACCGGTTTTCCCGGTAATCCGTATTTGAC (site ATGACTACTGT) | 1.25
27 | AAGATTTCATGGACCGGTTTTCCCGGTAATCCGTATTTGGA (site AAGATTTCTTC) | 2.1
28 | AAGCACGCATGGACCGGTTTTCCCGGTAATCCGTATTTGTG (site AAGCACGCTCA) | 1.42
29 | AAGCACGCATGGACCGGTTTTCCCGGTAATCCGTATTTGTG (site AAGCACGCTCC) | 0
30 | AAGCACGCATGGACCGGTTTTCCCGGTAATCCGTATTTGTG (site AAGCACGCTCG) | 1.22
31 | AAGCACGCATGGACCGGTTTTCCCGGTAATCCGTATTTGTG (site AAGCACGCTCT) | 0.906
32 | AAGCAGGCATGGACCGGTTTTCCCGGTAATCCGTATTTGGG (site AAGCAAGCTCC) | 0.00504
33 | AAGCAGGCATGGACCGGTTTTCCCGGTAATCCGTATTTGGG (site AAGCACGCTCC) | 0.0214
34 | AAGCAGGCATGGACCGGTTTTCCCGGTAATCCGTATTTGGG (site AAGCAGGCTCC) | 0.367
35 | AAGCAGGCATGGACCGGTTTTCCCGGTAATCCGTATTTGGG (site AAGCATGCTCC) | 0.00333
36 | AAGCCAGCATGGACCGGTTTTCCCGGTAATCCGTATTTGGG (site AAGCCAGCTCC) | 0.00996
37 | AAGCGGGCATGGACCGGTTTTCCCGGTAATCCGTATTTGAC (site AAGCGGGCTGT) | 1.62
38 | AAGCTGTCATGGACCGGTTTTCCCGGTAATCCGTATTTGAT (site AAGCTGTCTAT) | 0.353

Row | Sequence | recombinant UMI read abundance (log10)
39 | AAGGACACATGGACCGGTTTTCCCGGTAATCCGTATTTGAG (site AAGGACACTCT) | 2.09
40 | AAGGACGCATGGACCGGTTTTCCCGGTAATCCGTATTTGGG (site AAGAACGCTCC) | 0.307
41 | AAGGACGCATGGACCGGTTTTCCCGGTAATCCGTATTTGGG (site AAGCACGCTCC) | 0.0166
42 | AAGGACGCATGGACCGGTTTTCCCGGTAATCCGTATTTGGG (site AAGGACGCTCC) | 0.789
43 | AAGGACGCATGGACCGGTTTTCCCGGTAATCCGTATTTGGG (site AAGTACGCTCC) | 0.0226
44 | AAGGATCCATGGACCGGTTTTCCCGGTAATCCGTATTTGGT (site AAGGATCCTAC) | 0.373
45 | AAGGGTCCATGGACCGGTTTTCCCGGTAATCCGTATTTGAT (site AAGGGTCCTAT) | 0.0248
46 | AAGGTCACATGGACCGGTTTTCCCGGTAATCCGTATTTGAG (site AAGGTCACTCT) | 1.55
47 | AAGGTCACATGGACCGGTTTTCCCGGTAATCCGTATTTGGA (site AAGGTCACTTC) | 1.14
48 | AAGGTGTCATGGACCGGTTTTCCCGGTAATCCGTATTTGAC (site AAAGTGTCTGT) | 1.13
49 | AAGGTGTCATGGACCGGTTTTCCCGGTAATCCGTATTTGAC (site AACGTGTCTGT) | 0.678
50 | AAGGTGTCATGGACCGGTTTTCCCGGTAATCCGTATTTGAC (site AAGGTGTCTGT) | 3.31
51 | AAGGTGTCATGGACCGGTTTTCCCGGTAATCCGTATTTGAC (site AATGTGTCTGT) | 0
52 | AAGTAATCATGGACCGGTTTTCCCGGTAATCCGTATTTGAG (site AAGTAATCTCT) | 2.78
53 | AAGTAGGCATGGACCGGTTTTCCCGGTAATCCGTATTTGGC (site AAGTAGGCTGC) | 2.2
54 | AAGTAGGCATGGACCGGTTTTCCCGGTAATCCGTATTTGGC (site ACGTAGGCTGC) | 1.04
55 | AAGTAGGCATGGACCGGTTTTCCCGGTAATCCGTATTTGGC (site AGGTAGGCTGC) | 0.265
56 | AAGTAGGCATGGACCGGTTTTCCCGGTAATCCGTATTTGGC (site ATGTAGGCTGC) | 1.41
57 | AAGTCGCCATGGACCGGTTTTCCCGGTAATCCGTATTTGAC (site AAGTCGCCTGT) | 0
